Test results reported in PubChem BioAssay (NCI).
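Five compound concentrations were applied to cells in 96-well plates for 48 hours; endpoints were derived by simple linear interpolation of the resulting dose-response curve. Definition used: TGI = concentration required for complete inhibition of growth.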

How the values were obtained:
Experiment in all cases: NCI tumour cell line growth inhibition, 48 h
786-0 renal = test system: 786-0 renal
A498 renal = test system: A498 renal
A549 NSCLC = test system: A549 NSCLC
ACHN renal = test system: ACHN renal
BT-549 breast = test system: BT-549 breast
CAKI-1 renal = test system: CAKI-1 renal
CCRF-CEM leukemia = test system: CCRF-CEM leukemia
COLO 205 colon = test system: COLO 205 colon
DU-145 prostate = test system: DU-145 prostate
EKVX NSCLC = test system: EKVX NSCLC
HCC-2998 colon = test system: HCC-2998 colon
HCT-116 colon = test system: HCT-116 colon
HCT-15 colon = test system: HCT-15 colon
HL-60(TB) leukemia = test system: HL-60(TB) leukemia
HOP-62 NSCLC = test system: HOP-62 NSCLC
HOP-92 NSCLC = test system: HOP-92 NSCLC
HS 578T breast = test system: HS 578T breast
HT29 colon = test system: HT29 colon
IGROV1 ovarian = test system: IGROV1 ovarian
K-562 leukemia = test system: K-562 leukemia
KM12 colon = test system: KM12 colon
LOX IMVI melanoma = test system: LOX IMVI melanoma
M14 melanoma = test system: M14 melanoma
MALME-3M melanoma = test system: MALME-3M melanoma
MCF7 breast = test system: MCF7 breast
MDA-MB-231 breast = test system: MDA-MB-231 breast
MDA-MB-435 = test system: MDA-MB-435
MDA-N = test system: MDA-N
MOLT-4 leukemia = test system: MOLT-4 leukemia
NCI-H226 lung = test system: NCI-H226 lung
NCI-H23 lung = test system: NCI-H23 lung
NCI-H460 lung = test system: NCI-H460 lung
NCI-H522 lung = test system: NCI-H522 lung
NCI/ADR-RES ovarian = test system: NCI/ADR-RES ovarian
OVCAR-4 ovarian = test system: OVCAR-4 ovarian
OVCAR-5 ovarian = test system: OVCAR-5 ovarian
OVCAR-8 ovarian = test system: OVCAR-8 ovarian
PC-3 prostate = test system: PC-3 prostate
RPMI-8226 leukemia = test system: RPMI-8226 leukemia
RXF 393 renal = test system: RXF 393 renal
SF-268 CNS = test system: SF-268 CNS
SF-295 CNS = test system: SF-295 CNS
SF-539 CNS = test system: SF-539 CNS
SK-MEL-2 melanoma = test system: SK-MEL-2 melanoma
SK-MEL-28 melanoma = test system: SK-MEL-28 melanoma
SK-MEL-5 melanoma = test system: SK-MEL-5 melanoma
SK-OV-3 ovarian = test system: SK-OV-3 ovarian
SN12C renal = test system: SN12C renal
SNB-19 CNS = test system: SNB-19 CNS
SNB-75 CNS = test system: SNB-75 CNS
SW-620 colon = test system: SW-620 colon
T-47D breast = test system: T-47D breast
TK-10 renal = test system: TK-10 renal
U251 CNS = test system: U251 CNS
UACC-257 melanoma = test system: UACC-257 melanoma
UACC-62 melanoma = test system: UACC-62 melanoma
UO-31 renal = test system: UO-31 renal
OVCAR-3 ovarian = test system: OVCAR-3 ovarian
SR leukemia = test system: SR leukemia

SMILES: COc1cc(/C=C2\CC3C4CC[C@H]5C[C@@H](O)CC[C@]5(C)C4CC[C@]3(C)C2=O)cc(OC)c1OC (some centres undefined)
- TGI (786-0 renal): > 100 µM
- TGI (A498 renal): 75.5 µM
- TGI (A549 NSCLC): > 100 µM
- TGI (ACHN renal): 45.8 µM
- TGI (BT-549 breast): > 100 µM
- TGI (CAKI-1 renal): 44.9 µM
- TGI (CCRF-CEM leukemia): > 100 µM
- TGI (COLO 205 colon): 26.1 µM
- TGI (DU-145 prostate): > 100 µM
- TGI (EKVX NSCLC): > 100 µM
- TGI (HCC-2998 colon): 34.9 µM
- TGI (HCT-116 colon): 43.6 µM
- TGI (HCT-15 colon): > 100 µM
- TGI (HL-60(TB) leukemia): 43.2 µM
- TGI (HOP-62 NSCLC): 49.2 µM
- TGI (HOP-92 NSCLC): > 100 µM
- TGI (HS 578T breast): > 100 µM
- TGI (HT29 colon): > 100 µM
- TGI (IGROV1 ovarian): > 100 µM
- TGI (K-562 leukemia): > 100 µM
- TGI (KM12 colon): 73.7 µM
- TGI (LOX IMVI melanoma): 32.6 µM
- TGI (M14 melanoma): 61 µM
- TGI (MALME-3M melanoma): 49.1 µM
- TGI (MCF7 breast): 28.6 µM
- TGI (MDA-MB-231 breast): > 100 µM
- TGI (MDA-MB-435): 85.8 µM
- TGI (MDA-N): > 100 µM
- TGI (MOLT-4 leukemia): 69.5 µM
- TGI (NCI-H226 lung): 86.1 µM
- TGI (NCI-H23 lung): > 100 µM
- TGI (NCI-H460 lung): 38.9 µM
- TGI (NCI-H522 lung): 43.3 µM
- TGI (NCI/ADR-RES ovarian): > 100 µM
- TGI (OVCAR-4 ovarian): 57.2 µM
- TGI (OVCAR-5 ovarian): > 100 µM
- TGI (OVCAR-8 ovarian): > 100 µM
- TGI (PC-3 prostate): > 100 µM
- TGI (RPMI-8226 leukemia): 27.8 µM
- TGI (RXF 393 renal): > 100 µM
- TGI (SF-268 CNS): > 100 µM
- TGI (SF-295 CNS): 21.5 µM
- TGI (SF-539 CNS): 98.2 µM
- TGI (SK-MEL-2 melanoma): 33.7 µM
- TGI (SK-MEL-28 melanoma): > 100 µM
- TGI (SK-MEL-5 melanoma): 22 µM
- TGI (SK-OV-3 ovarian): 52.9 µM
- TGI (SN12C renal): 95.3 µM
- TGI (SNB-19 CNS): > 100 µM
- TGI (SNB-75 CNS): 79.7 µM
- TGI (SW-620 colon): > 100 µM
- TGI (T-47D breast): 34.8 µM
- TGI (TK-10 renal): > 100 µM
- TGI (U251 CNS): 41.5 µM
- TGI (UACC-257 melanoma): > 100 µM
- TGI (UACC-62 melanoma): 44.9 µM
- TGI (UO-31 renal): 31.7 µM

SMILES: NS(=O)(=O)c1nnc(/N=C(/CCC(=O)O)C(=O)O)s1
- TGI (786-0 renal): > 100 µM
- TGI (A498 renal): > 100 µM
- TGI (A549 NSCLC): > 100 µM
- TGI (ACHN renal): > 100 µM
- TGI (BT-549 breast): > 100 µM
- TGI (CAKI-1 renal): > 100 µM
- TGI (CCRF-CEM leukemia): > 100 µM
- TGI (COLO 205 colon): > 100 µM
- TGI (DU-145 prostate): > 100 µM
- TGI (EKVX NSCLC): > 100 µM
- TGI (HCC-2998 colon): > 100 µM
- TGI (HCT-116 colon): > 100 µM
- TGI (HCT-15 colon): > 100 µM
- TGI (HL-60(TB) leukemia): > 100 µM
- TGI (HOP-62 NSCLC): > 100 µM
- TGI (HOP-92 NSCLC): > 100 µM
- TGI (HS 578T breast): > 100 µM
- TGI (HT29 colon): > 100 µM
- TGI (IGROV1 ovarian): > 100 µM
- TGI (K-562 leukemia): > 100 µM
- TGI (KM12 colon): > 100 µM
- TGI (LOX IMVI melanoma): > 100 µM
- TGI (M14 melanoma): > 100 µM
- TGI (MALME-3M melanoma): > 100 µM
- TGI (MCF7 breast): > 100 µM
- TGI (MDA-MB-231 breast): > 100 µM
- TGI (MDA-MB-435): > 100 µM
- TGI (MDA-N): > 100 µM
- TGI (MOLT-4 leukemia): > 100 µM
- TGI (NCI-H226 lung): > 100 µM
- TGI (NCI-H23 lung): > 100 µM
- TGI (NCI-H460 lung): > 100 µM
- TGI (NCI-H522 lung): > 100 µM
- TGI (NCI/ADR-RES ovarian): > 100 µM
- TGI (OVCAR-3 ovarian): > 100 µM
- TGI (OVCAR-4 ovarian): > 100 µM
- TGI (OVCAR-5 ovarian): > 100 µM
- TGI (OVCAR-8 ovarian): > 100 µM
- TGI (PC-3 prostate): > 100 µM
- TGI (RPMI-8226 leukemia): > 100 µM
- TGI (SF-295 CNS): > 100 µM
- TGI (SF-539 CNS): > 100 µM
- TGI (SK-MEL-2 melanoma): > 100 µM
- TGI (SK-MEL-28 melanoma): > 100 µM
- TGI (SK-MEL-5 melanoma): > 100 µM
- TGI (SK-OV-3 ovarian): > 100 µM
- TGI (SN12C renal): > 100 µM
- TGI (SNB-19 CNS): > 100 µM
- TGI (SNB-75 CNS): > 100 µM
- TGI (SR leukemia): > 100 µM
- TGI (SW-620 colon): > 100 µM
- TGI (T-47D breast): > 100 µM
- TGI (TK-10 renal): > 100 µM
- TGI (U251 CNS): > 100 µM
- TGI (UACC-257 melanoma): > 100 µM
- TGI (UACC-62 melanoma): > 100 µM
- TGI (UO-31 renal): > 100 µM
